Test results reported in patent US20200223839A1, “FLUORO-CONTAINING COMPOUNDS, USE AND PREPARATION THEREOF” (JIANGSU YINGKEBEITA YIYAOKEJI CO. LTD, priority 2017, published 2020).

How the values were obtained:
U937 = test: Cytotoxicity assay by the CTG method, U937; assay type: cell-based; conditions: Homo sapiens, U-937, U937, Lymphoma, 72 h
Method: (§1) The corresponding cells were harvested from flask into cell culture medium and the cell number were counted. The cells were diluted with culture medium to the desired density and 40 μL of cell suspension was added into each well of 384-well cell culture plate as designated. The plates were covered with lid and placed in room temperature for 30 minutes without shaking and then were transferred plates into 37° C. 5% CO2 incubator overnight for cell attachment.
(§2) Compound preparation and treatment: Test compounds were received or dissolved at 30 mM stock solution and control compound Staurosporine was stored as 10 mM and 1 mM concentration. 45 uL of stock solution was transferred to a 384 pp-plate. 3 fold, 10-point dilution were performed via transferring 15 uL compound into 30 μL DMSO by using TECAN (EVO200) liquid handler. The plates were spun at room temperature at 1,000 RPM for 1 minute and shaken at a plate shaker for 2 minutes. […]
(§3) The plate from incubators were placed and equilibrated at room temperature for 15 minutes. […] 40 μL of CellTiter-Glo reagent were transferred into each well to be detected (at 1:1 to culture medium). Then the plates were placed at room temperature for 30 min followed by reading on EnSpire.
(§4) The inhibition activity was calculated following the formula below: […]
(§5) The IC50 were calculated by fitting the Curve using Xlfit (v5.3.1.3): […]

MDA-MB-468 cell line = test: Anti-tumor activity against MDA-MB-468 cell line (CCK-8 test); assay type: cell-based; conditions: Homo sapiens, MDA-MB-468, 72 h
Method: A cryo tube was removed from liquid nitrogen. As quickly as possible, the cells were thawed by placing the vial in a 37° C. water bath and gently shaking the vials. The cells were transferred to medium tube, which containing 5 mL medium, and were centrifuged at 1000 rpm for 6 min. The supernatant containing dead cells and cell debris was discarded. 1 mL of pre-warmed medium with 10% FBS was add and the solution was re-suspended. The plate was placed in 37° C. and 5% CO2 incubator. The medium was changed next day.
Cells in logarithmic growth stage were taken and culture medium was discarded. 1 mL 0.25% trypsin solution was added for twice. The trypsin solution was removed and the 0.5 ml 0.25% trypsin solution was added to the cell flask. The plate was placed in 37° C. and 5% CO2 incubator for a few minutes until the cells recovered. 1 mL medium was added to stop digestion. The liquid was transferred by pipette for experiment.
the cells were suspended and the medium was discarded. 1 mL 0.25% trypsin solution was added for twice and the trypsin digestion was centrifuged. The cells were suspended with the culture medium, count and adjusted to the appropriate concentration.
The cell suspension was added to the 96-well plate with a volume of 100 uL per well, as shown in Tab. 5, and was placed in 37° C., 5% CO2 incubator overnight.
Preparation of Compounds Working Solution.
The test compounds were dissolved in DMSO at 10 mM with sterile filter (0.22 um, nelon, JET). After filtering, the solution were continuously diluted by three times with DMSO. A total of six concentration were prepared, as shown below.
6 uL compound solution was added to 594 uL medium and the solution was added to 96-well plate as shown and cultured for 72 h in CO2 incubator.
A CCK-8 solution was prepared according to the instructions and the 96-well plate was taken out and the original medium discarded. 100 uL cck-8 solution was added to each well in the 96-well plate. Photoabsorption data were read by TECAN enzyme marker after a period of time.
IC (%)=[Ac-As]/[Ac-Ab]*100% • As: Experimental well (containing culture medium, cell, CCK-8 and compound); • Ac: Controlled well (containing culture medium, cell and CCK-8); • Ab: Blank well (Only containing medium and CCK-8).

HCC1937 = test: Cell culture and cytotoxicity assay (CTG), HCC1937; assay type: cell-based; conditions: Homo sapiens, HCC1937, exposure 72 hours
Method: (§6) The assayed compounds each was dissolved in DMSO with a final concentration of 10 mM or 40 mM and stored at −20° C. Tumor cell lines A549 (7,000 cells/well), BT474 (12,000 cells/well), MDA-MB-468 (12,000 cells/well), and HCC1937 (6,000 cells/well) were seeded on 96-well plates. And the cells were pre-incubated at 37° C./5% CO2 for 24 hours. The cells were exposed to different concentrations of the assay compounds (from 400 μM to 782 nM, from 200 μM to 391 nM, from 100 μM to 196 nM, and from 50 μM to 98 nM) for the following time:
(§7) After incubation, 100 μL from each well was discarded and CTG base (Proega, G7571, 50 μL) was added and the mixture was agitated for 2 minutes. The mixtures were stored in a dark room for 10 minutes and the viability was analyzed with Multiskan microplate reader.

NCI-H446 = test: Cytotoxicity assay by the CTG method, NCI-H446; assay type: cell-based; conditions: Homo sapiens, NCI-H446, Lung cancer, 72 h
Method: as §1, §2, §3, §4, §5

[1] = In vivo xenograft study, MDA-MB-468, mice weights; conditions: MDA-MB-468 xenograft in BALB/c-nu mice, FIGS. 3 and 5
Method: MDA-MB-468 cells (human breast cancer) in its log growth phase were implanted in BALB/c-nu mice. When the tumor volume was approximately 50-150 mm^3, the mice were randomized into four groups, each include 8 mice. The four groups were treated with vehicle, Ref. 1, 4f, and Ref. 2, respectively, and the tumor sizes were measured two to three times each week and the mice were also weighted.

[2] = In vivo mouse model, Hep3B, mice weights
Text: Hep3B cells (human liver cancer) were also studied in a mouse model. […] FIG. 9.

[3] = tested on: MDA-MB-453 cells (human breast cancer); test: In vivo mouse model, MDA-MB-453, tumor sizes; conditions: MDA-MB-453 mouse model, similar dosage (for example, 100 mg/Kg), FIG. 6
Text: MDA-MB-453 cells (human breast cancer) were also studied in a mouse model. […] FIG. 7.

A549 = test: Cell culture and cytotoxicity assay (CTG), A549; assay type: cell-based; conditions: Homo sapiens, A549, exposure 72 hours
Method: as §6, §7

PLC/PRF/5 = test: Cytotoxicity assay by the CTG method, PLC/PRF/5; assay type: cell-based; conditions: Homo sapiens, PLC/PRF/5, Liver cancer, 72 h
Method: as §1, §2, §3, §4, §5

HL-60 = test: Cytotoxicity assay by the CTG method, HL-60; assay type: cell-based; conditions: Homo sapiens, HL-60, Leukemia, 72 h
Method: as §1, §2, §3, §4, §5

A2058 = test: Cytotoxicity assay by the CTG method, A2058; assay type: cell-based; conditions: Homo sapiens, A2058, Melanoma, 72 h
Method: as §1, §2, §3, §4, §5

Molecule `Cc1ccc(S(=O)(=O)Nc2nc3ccccc3nc2Nc2ccc3nsnc3c2)cc1F` [Compound 4f, N-[3-(benzo[1,2,5]thiadiazol-5-ylamino)-quinoxalin-2-yl]-3-fluoro-4-methyl-benzenesulfonamide] has an IC50 (U937) of 3.68 µM, an IC50 (MDA-MB-468 cell line) of 0.912 µM and an IC50 (HCC1937) of 37900 nM. For the same molecule, the IC50 (NCI-H446) was 3.92 µM, the “weight changes of mice” value [1] was “no significant weight changes” and the weight changes ([2]; FIG. 9, 50 mg/Kg) was “no difference in weight changes”. For the same molecule, the weight changes ([2]; FIG. 9, 100 mg/Kg) was “no difference in weight changes”, the “anticancer activities (tumor sizes) compared with Ref. 2” value [3] was “better anticancer activities than Ref. 2” and the IC50 (A549) was 25000 to 50000 nM. The IC50 (PLC/PRF/5) was 3.27 µM, the IC50 (HL-60) was 7.61 µM and the IC50 (A2058) was 7.7 µM.
